Molecular target: D2 receptor (Homo sapiens, UniProt P14416)
Experiment: [3H]Thymidine uptake assay for D2 intrinsic activity
Assay type: cell-based
Conditions: Table 1; test compound 1 μM; 1 μM Quinpirole = 100% intrinsic activity

Sequence of D2 receptor (P14416 whole entry): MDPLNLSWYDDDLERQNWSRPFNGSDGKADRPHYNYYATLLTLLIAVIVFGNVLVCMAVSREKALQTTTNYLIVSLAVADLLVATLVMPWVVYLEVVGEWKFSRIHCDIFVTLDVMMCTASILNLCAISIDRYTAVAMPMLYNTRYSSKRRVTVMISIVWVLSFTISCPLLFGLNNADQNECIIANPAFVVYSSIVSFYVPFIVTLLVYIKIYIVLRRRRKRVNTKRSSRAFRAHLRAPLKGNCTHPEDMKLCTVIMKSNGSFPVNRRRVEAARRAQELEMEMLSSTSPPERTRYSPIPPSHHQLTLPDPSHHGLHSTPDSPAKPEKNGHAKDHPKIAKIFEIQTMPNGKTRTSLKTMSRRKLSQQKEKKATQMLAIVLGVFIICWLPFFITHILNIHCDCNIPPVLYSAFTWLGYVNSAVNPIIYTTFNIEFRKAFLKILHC

Structure (SMILES) | Emax at 1 µM [%]
CC(C)Oc1ccccc1N1CCN(CCCCOc2ncc3ccc(=O)[nH]c3n2)CC1 [Example H2, 2-{4-[4-(2-Isopropoxy-phenyl)-piperazin-1-yl]-butoxy}-8H-pyrido[2,3-d]pyrimidin-7-one] | 22
O=c1ccc2cnc(OCCCCN3CCN(c4cccc5c4CCC5)CC3)nc2[nH]1 [Example H3, 2-[4-(4-Indan-4-yl-piperazin-1-yl)-butoxy]-8H-pyrido[2,3-d]pyrimidin-7-one] | 25
O=c1ccc2cnc(OCCCCN3CCN(c4cccc5ccccc45)CC3)nc2[nH]1 [Example H4, 2-[4-(4-Naphthalen-1-yl-piperazin-1-yl)-butoxy]-8H-pyrido[2,3-d]pyrimidin-7-one] | 38
Cc1nc(OCCCCN2CCN(c3cccc4ccccc34)CC2)nc2[nH]c(=O)c(F)cc12 [Example H5, 6-Fluoro-4-methyl-2-[4-(4-naphthalen-1-yl-piperazin-1-yl)-butoxy]-8H-pyrido[2,3-d]pyrimidin-7-one] | 34

Same assay, conditions: Table 2; test compound 1 μM; 1 μM Quinpirole = 100% intrinsic activity

Structure (SMILES) | Emax at 1 µM [%]
CC1(C)Cc2cccc(N3CCN(CCCCOc4ncc5ccc(=O)[nH]c5n4)CC3)c2O1 [Example G8′, 2-{4-[4-(2,2-Dimethyl-2,3-dihydro-benzofuran-7-yl)-piperazin-1-yl]-butoxy}-8H-pyrido[2,3-d]pyrimidin-7-one] | 32
Cc1ccc2cccc(N3CCN(CCCCOc4ncc5ccc(=O)[nH]c5n4)CC3)c2n1 [Example G9′, 2-{4-[4-(2-Methyl-quinolin-8-yl)-piperazin-1-yl]-butoxy}-8H-pyrido[2,3-d]pyrimidin-7-one] | 21
Cc1nc(OCCCCN2CCN(c3cccc4c3OCCO4)CC2)nc2[nH]c(=O)ccc12 [Example G10′, 2-{4-[4-(2,3-Dihydro-benzo[1,4]dioxin-5-yl)-piperazin-1-yl]-butoxy}-4-methyl-8H-pyrido[2,3-d]pyrimidin-7-one] | 18
Cc1nc(OCCCCN2CCN(c3cccc4c3OCC4)CC2)nc2[nH]c(=O)ccc12 [Example G11′, 2-{4-[4-(2,3-Dihydro-benzofuran-7-yl)-piperazin-1-yl]-butoxy}-4-methyl-8H-pyrido[2,3-d]pyrimidin-7-one] | 39
Cc1nc(OCCCCN2CCN(c3cccc4ccoc34)CC2)nc2[nH]c(=O)ccc12 [Example G12′, 2-[4-(4-Benzofuran-7-yl-piperazin-1-yl)-butoxy]-4-methyl-8H-pyrido[2,3-d]pyrimidin-7-one] | 36
Cc1nc(OCCCCN2CCN(c3cccc4c3NC(=O)CC4)CC2)nc2[nH]c(=O)ccc12 [Example G14′, 4-Methyl-2-{4-[4-(2-oxo-1,2,3,4-tetrahydro-quinolin-8-yl)-piperazin-1-yl]-butoxy}-8H-pyrido[2,3-d]pyrimidin-7-one] | 44
Cc1nc(OCCCCN2CCN(c3cccc4cccnc34)CC2)nc2[nH]c(=O)ccc12 [Example G15′, 4-Methyl-2-[4-(4-quinolin-8-yl-piperazin-1-yl)-butoxy]-8H-pyrido[2,3-d]pyrimidin-7-one] | 41
O=C1CCc2cnc(OCCCCN3CCN(c4cccc5c4OCCC5)CC3)cc2N1 [Example H1′, 7-[4-(4-Chroman-8-yl-piperazin-1-yl)-butoxy]-3,4-dihydro-1H-[1,6]naphthyridin-2-one] | 22
O=C1CCc2cnc(OCCCCN3CCN(c4cccc5c4OCC5)CC3)cc2N1 [Example H2′, 7-{4-[4-(2,3-Dihydro-benzofuran-7-yl)-piperazin-1-yl]-butoxy}-3,4-dihydro-1H-[1,6]naphthyridin-2-one] | 15
O=C1CCc2cnc(OCCCCN3CCN(c4cccc5c4OC(F)(F)C(F)(F)O5)CC3)cc2N1 [Example H3′, 7-{4-[4-(2,2,3,3-Tetrafluoro-2,3-dihydro-benzo[1,4]dioxin-5-yl)-piperazin-1-yl]-butoxy}-3,4-dihydro-1H-[1,6]naphthyridin-2-one] | 22
O=C1CCc2cnc(OCCCCN3CCN(c4cccc5c4OC(F)(F)O5)CC3)cc2N1 [Example H4′, 7-{4-[4-(2,2-Difluoro-benzo[1,3]dioxol-4-yl)-piperazin-1-yl]-butoxy}-3,4-dihydro-1H-[1,6]naphthyridin-2-one] | 21
